Data published in US20240043404A1 (AbbVie Inc., priority 2009, published 2024).

Tested on: RS4;11 cells
Experiment: RS4;11 cell viability assay (CellTiter Glo);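 also: acute lymphoblastic leukemia line RS4,11, EC50 derived from percentage of viable cells after treatment relative to untreated controls, cell killing taken as a measure of Bcl-2 inhibition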
Format: cell-based, human
Conditions: Homo sapiens, RS4-11, 48 h, 50,000 cells per well, 10% human serum, 48 hours; read-out: RS4; 11 EC50 Values
Description: The acute lymphoblastic leukemia (ALL) cell line RS4;11 was used as the primary human cell line to assess the cellular activity of Bcl-2 selective agents in vitro and their efficacy in vivo.
Cell cytotoxicity EC50 values were assessed using CellTiter Glo (Promega) according to the manufacturer's recommendations. The EC50 values were determined as a percentage of viable cells following treatment compared to the untreated control cells.

SMILES | EC50 [nM]
CC1(C)CCC(CN2CCN(c3ccc(C(=O)NS(=O)(=O)c4cnc(OC[C@@H]5CCN(C(CF)CF)C5)c(Cl)c4)c(Oc4cnc5[nH]ccc5c4)c3)CC2)=C(c2ccc(Cl)cc2)C1 [Example 280, N-[(5-chloro-6-{[(3R)-1-(1,3-difluoropropan-2-yl)pyrrolidin-3-yl]methoxy}pyridin-3-yl)sulfonyl]-4-(4-{[2-(4-chlorophenyl)-4,4-dimethylcyclohex-1-en-1-yl]methyl}piperazin-1-yl)-2-(1H-pyrrolo[2,3-b]pyridin-5-yloxy)benzamide] | 459
CC1(C)CCC(CN2CCN(c3ccc(C(=O)NS(=O)(=O)c4ccc(NCC5CCOCC5)c(Cl)c4)c(Oc4cnc5[nH]ccc5c4)c3)CC2)=C(c2ccc(Cl)cc2)C1 [Example 306, 4-(4-{[2-(4-chlorophenyl)-4,4-dimethylcyclohex-1-en-1-yl]methyl}piperazin-1-yl)-N-({3-chloro-4-[(tetrahydro-2H-pyran-4-ylmethyl)amino]phenyl}sulfonyl)-2-(1H-pyrrolo[2,3-b]pyridin-5-yloxy)benzamide] | 553
CC1(C)CCC(CN2CCN(c3ccc(C(=O)NS(=O)(=O)c4ccc(NCC5CCOCC5)c(C#N)c4)c(Oc4cnc5[nH]ccc5c4)c3)CC2)=C(c2ccc(Cl)cc2)C1 [Example 110, 4-(4-{[2-(4-chlorophenyl)-4,4-dimethylcyclohex-1-en-1-yl]methyl}piperazin-1-yl)-N-({3-cyano-4-[(tetrahydro-2H-pyran-4-ylmethyl)amino]phenyl}sulfonyl)-2-(1H-pyrrolo[2,3-b]pyridin-5-yloxy)benzamide] | 536
CC1(C)CCC(CN2CCN(c3ccc(C(=O)NS(=O)(=O)c4ccc(NCC(F)(F)F)c([N+](=O)[O-])c4)c(Oc4cnc5[nH]ccc5c4)c3)CC2)=C(c2ccc(Cl)cc2)C1 [Example 26, 4-(4-{[2-(4-chlorophenyl)-4,4-dimethylcyclohex-1-en-1-yl]methyl}piperazin-1-yl)-N-({3-nitro-4-[(2,2,2-trifluoroethyl)amino]phenyl}sulfonyl)-2-(1H-pyrrolo[2,3-b]pyridin-5-yloxy)benzamide] | 58.9
CC1(C)CCC(CN2CCN(c3ccc(C(=O)NS(=O)(=O)c4ccc(NC5CN(C(CF)CF)C5)c([N+](=O)[O-])c4)c(Oc4cnc5[nH]ccc5c4)c3)CC2)=C(c2ccc(Cl)cc2)C1 [Example 151, 4-(4-{[2-(4-chlorophenyl)-4,4-dimethylcyclohex-1-en-1-yl]methyl}piperazin-1-yl)-N-{[4-({1-[2-fluoro-1-(fluoromethyl)ethyl]azetidin-3-yl}amino)-3-nitrophenyl]sulfonyl}-2-(1H-pyrrolo[2,3-b]pyridin-5-yloxy)benzamide] | 33.7
CN(C)CC(=O)N1CCO[C@@H](COc2ncc(S(=O)(=O)NC(=O)c3ccc(N4CCN(CC5=C(c6ccc(Cl)cc6)CC(C)(C)CC5)CC4)cc3Oc3cnc4[nH]ccc4c3)cc2Cl)C1 [Example 247, N-[(5-chloro-6-{[(2R)-4-(N,N-dimethylglycyl)morpholin-2-yl]methoxy}pyridin-3-yl)sulfonyl]-4-(4-{[2-(4-chlorophenyl)-4,4-dimethylcyclohex-1-en-1-yl]methyl}piperazin-1-yl)-2-(1H-pyrrolo[2,3-b]pyridin-5-yloxy)benzamide] | 93
CC(C)c1cc(S(=O)(=O)NC(=O)c2ccc(N3CCN(CC4=C(c5ccc(Cl)cc5)CC(C)(C)CC4)CC3)cc2Oc2cnc3[nH]ccc3c2)cnc1OCC1CCOCC1 [Example 85, 4-(4-{[2-(4-chlorophenyl)-4,4-dimethylcyclohex-1-en-1-yl]methyl}piperazin-1-yl)-N-{[5-isopropyl-6-(tetrahydro-2H-pyran-4-ylmethoxy)pyridin-3-yl]sulfonyl}-2-(1H-pyrrolo[2,3-b]pyridin-5-yloxy)benzamide] | 1950
CC1(C)CCC(CN2CCN(c3ccc(C(=O)NS(=O)(=O)c4cnc(OCC5CCC(F)(F)CC5)c(Cl)c4)c(Oc4cnc5[nH]ccc5c4)c3)CC2)=C(c2ccc(Cl)cc2)C1 [Example 287, N-({5-chloro-6-[(4,4-difluorocyclohexyl)methoxy]pyridin-3-yl}sulfonyl)-4-(4-{[2-(4-chlorophenyl)-4,4-dimethylcyclohex-1-en-1-yl]methyl}piperazin-1-yl)-2-(1H-pyrrolo[2,3-b]pyridin-5-yloxy)benzamide] | 593
CC1(C)CCC(CN2CCN(c3ccc(C(=O)NS(=O)(=O)c4ccc(OCc5ccoc5)c([N+](=O)[O-])c4)c(Oc4cnc5[nH]ccc5c4)c3)CC2)=C(c2ccc(Cl)cc2)C1 [Example 279, 4-(4-{[2-(4-chlorophenyl)-4,4-dimethylcyclohex-1-en-1-yl]methyl}piperazin-1-yl)-N-{[4-(3-furylmethoxy)-3-nitrophenyl]sulfonyl}-2-(1H-pyrrolo[2,3-b]pyridin-5-yloxy)benzamide] | 225
CC1(C)CCC(CN2CCN(c3ccc(C(=O)NS(=O)(=O)c4ccc(N[C@@H]5CC[C@H](N6CCOCC6)C5)c([N+](=O)[O-])c4)c(Oc4cnc5[nH]ccc5c4)c3)CC2)=C(c2ccc(Cl)cc2)C1 [Example 112, 4-(4-{[2-(4-chlorophenyl)-4,4-dimethylcyclohex-1-en-1-yl]methyl}piperazin-1-yl)-N-[(4-{[(1R,3S)-3-morpholin-4-ylcyclopentyl]amino}-3-nitrophenyl)sulfonyl]-2-(1H-pyrrolo[2,3-b]pyridin-5-yloxy)benzamide] | 20.6

Compounds with a lower EC50, results first:

EC50 [nM] | SMILES
14.8 | CC1(C)CCC(CN2CCN(c3ccc(C(=O)NS(=O)(=O)c4ccc(OCC5CCN(C(CF)CF)CC5)c([N+](=O)[O-])c4)c(Oc4cnc5[nH]ccc5c4)c3)CC2)=C(c2ccc(Cl)cc2)C1 [Example 129, 4-(4-{[2-(4-chlorophenyl)-4,4-dimethylcyclohex-1-en-1-yl]methyl}piperazin-1-yl)-N-{[4-({1-[2-fluoro-1-(fluoromethyl)ethyl]piperidin-4-yl}methoxy)-3-nitrophenyl]sulfonyl}-2-(1H-pyrrolo[2,3-b]pyridin-5-yloxy)benzamide]
14.8 | CC1(C)CCC(CN2CCN(c3ccc(C(=O)NS(=O)(=O)c4ccc(NCC5CCN(C6CC6)CC5)c([N+](=O)[O-])c4)c(Oc4cnc5[nH]ccc5c4)c3)CC2)=C(c2ccc(Cl)cc2)C1 [Example 164, 4-(4-{[2-(4-chlorophenyl)-4,4-dimethylcyclohex-1-en-1-yl]methyl}piperazin-1-yl)-N-[(4-{[(1-cyclopropylpiperidin-4-yl)methyl]amino}-3-nitrophenyl)sulfonyl]-2-(1H-pyrrolo[2,3-b]pyridin-5-yloxy)benzamide]
13.2 | CC1(C)CCC(CN2CCN(c3ccc(C(=O)NS(=O)(=O)c4ccc(NCCCN5CCOCC5)c([N+](=O)[O-])c4)c(Oc4cnc5[nH]ccc5c4)c3)CC2)=C(c2ccc(Cl)cc2)C1 [Example 55, 4-(4-{[2-(4-chlorophenyl)-4,4-dimethylcyclohex-1-en-1-yl]methyl}piperazin-1-yl)-N-({4-[(3-morpholin-4-ylpropyl)amino]-3-nitrophenyl}sulfonyl)-2-(1H-pyrrolo[2,3-b]pyridin-5-yloxy)benzamide]
2.72 | CC1(C)CCC(CN2CCN(c3ccc(C(=O)NS(=O)(=O)c4ccc(NC[C@H]5CN(C6CC6)CCO5)c([N+](=O)[O-])c4)c(Oc4cnc5[nH]ccc5c4)c3)CC2)=C(c2ccc(Cl)cc2)C1 [Example 327, 4-(4-{[2-(4-chlorophenyl)-4,4-dimethylcyclohex-1-en-1-yl]methyl}piperazin-1-yl)-N-{[4-({[(2S)-4-cyclopropylmorpholin-2-yl]methyl}amino)-3-nitrophenyl]sulfonyl}-2-(1H-pyrrolo[2,3-b]pyridin-5-yloxy)benzamide]
